In US4999372A, “New aminochromanol compounds” (ADIR et Compagnie, priority 1988, dated 1991):

Test system: anaesthetised dog
Test: Haemodynamic study in the anaesthetised dog (vascular resistances), i.v.
Assay type: in vivo
Conditions: 3000 μg/kg
Protocol: A complete haemodynamic study was carried out on mongrel dogs weighing from 25 to 30 kg, which were anaesthetised with sodium pentobarbital 30 mg/kg i.v., intubated and ventilated and subjected to a thoracotomy at the 5th left intercostal space. The measurement of the […] is carried out using electromagnetic rings positioned at the level of the ascending aorta and the circumflex branch of the left coronary artery, respectively, and connected to GOULD SP 2202 electromagnetic flow meters. The aortic pressure is measured by a MILLAR probe introduced via the femoral artery.
The total peripheral vascular resistance values (TPR) and the mean coronary vascular resistance values (CVRM) are calculated by the ratio between the mean aortic pressure and the mean cardiac output and the mean coronary output, respectively. The products tested were injected via the femoral vein in a form dissolved in water or a suitable solvent.
The evolution of the vascular resistances, expressed as percentage variation with respect to the control values, is presented as a function of time in the following Table.

SMILES: CN(C)C[C@@H]1CCC(=O)N1C1c2cc(C#N)ccc2OC(C)(C)C1O (single isomer, unassigned) [Example 3 form A, 3R,4S- or 3S,4R-trans-2,2-dimethyl-3-hydroxy-4-(2-oxo-5S-dimethylaminomethyl-1-pyrrolidinyl)-6-cyanochroman]
- Variation (%) of CVRM after treatment (1 min): +2.5%
- Variation (%) of TPR after treatment (1 min): +1.7%
- Variation (%) of CVRM after treatment (10 min): -38.5%
- Variation (%) of TPR after treatment (10 min): -6.8%
- Variation (%) of CVRM after treatment (30 min): -49.0%
- Variation (%) of TPR after treatment (30 min): -8.5%
